Laboratory results reported in US6706663B2, “Herbicidal 3-heterocyclic substituted benzisothiazole and benzisoxazole compounds” (Wyeth, priority 2000, dated 2004).

Columns and labels:
ZEAMX (Corn, Field) [1] = assay: Preemergence herbicidal evaluation; type: in vivo, Zea mays, L.; settings: preemergence, rated 4-5 weeks after treatment
[2] = tested on: MOOVA (Monochoria vaginalis); assay: Flooded paddy, preemergence weed control; type: in vivo, Presl.; settings: rated 3-4 weeks after treatment, 0-9 rating scale
Procedure, shortened: (§1)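 Greenhouse paddy test, preemergence. Seeds planted in the top 0.5 cm of silt loam soil, which remained flooded at 1.5–3 cm depth. Scored 0-9 by visual comparison with control.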

GALAP (Galium aparine) [3] = assay: Postemergence herbicidal evaluation; type: in vivo; settings: postemergence
Procedure, shortened: (§2)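 Seedlings grown for about two weeks were sprayed postemergence and then kept under standard greenhouse care. Injury was rated visually 4–5 weeks after treatment on a 0–9 scale against untreated controls, and ratings from repeat tests were averaged.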

[4] = tested on: TRZAWR (Wheat, Winter, cv Riband); assay: Postemergence herbicidal evaluation; type: in vivo, Triticum aestivum; settings: postemergence
Procedure, shortened: as §2

[5] = tested on: AMBEL (Ambrosia artemisifolia); assay: Preemergence herbicidal evaluation; type: in vivo, L.; settings: preemergence, rated 4-5 weeks after treatment
Procedure, shortened: (§3)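 Test compound is applied in aqueous acetone to cups just after seeding. Cups are watered and maintained on greenhouse benches. Each cup is scored 0–9 by eye relative to a control after four to five weeks.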

[6] = tested on: IPOHE (Ipomoea hederacea); assay: Postemergence herbicidal evaluation; type: in vivo, (L.) Jacq.; settings: postemergence
Procedure, shortened: as §2

[7] = tested on: IPOHE (Ipomoea hederacea); assay: Preemergence herbicidal evaluation; type: in vivo, (L.) Jacq.; settings: preemergence, rated 4-5 weeks after treatment
[8] = tested on: ABUTH (Abutilon theophrasti); assay: Preemergence herbicidal evaluation; type: in vivo, Medic.; settings: preemergence, rated 4-5 weeks after treatment
GALAP (Galium aparine) [9] = assay: Preemergence herbicidal evaluation; type: in vivo; settings: preemergence, rated 4-5 weeks after treatment
Procedure, shortened: as §3

[10] = tested on: ECHCG (Echinochloa crus-galli); assay: Preemergence herbicidal evaluation; type: in vivo, (L.) Beau; settings: preemergence, rated 4-5 weeks after treatment
Procedure, shortened: as §3

ORYSAT (Rice, Tebonnet) [11] = assay: Postemergence herbicidal evaluation; type: in vivo, Oryza sativa, (L.) Tebonnet; settings: postemergence
Procedure, shortened: as §2

GLXMA (Soybean) = assay: Preemergence herbicidal evaluation; type: in vivo, Glycine max, (L.) Merr.; settings: preemergence, rated 4-5 weeks after treatment
CYPIR (Cyperus iria) = assay: Flooded paddy, preemergence weed control; type: in vivo; settings: rated 3-4 weeks after treatment, 0-9 rating scale
Procedure, shortened: as §1

[12] = tested on: GLXMAW (Soybean, Williams); assay: Postemergence herbicidal evaluation; type: in vivo, Glycine max, (L.) Merr. cv Williams; settings: postemergence
Procedure, shortened: as §2

[13] = tested on: ABUTH (Abutilon theophrasti); assay: Postemergence herbicidal evaluation; type: in vivo, Medic.; settings: postemergence
Procedure, shortened: as §2

[14] = tested on: ECHORC (Echinochloa oryzoides); assay: Flooded paddy, preemergence weed control; type: in vivo, Echinochloa oryzoides (Ard.) Fritsch.; settings: rated 3-4 weeks after treatment, 0-9 rating scale
Procedure, shortened: as §1

ORYSAT (Rice, Tebonnet) [15] = assay: Flooded paddy, post-transplant rice tolerance; type: in vivo, Oryza sativa, (L.) Tebonnet; settings: flooded paddy, post-transplant rice, rated 3-4 weeks after treatment, 0-9 rating scale
Procedure, shortened: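 Seedlings aged ten days are transplanted in pairs into undrained pots of silt loam, which are then flooded to a depth of 1.5 to 3 cm. After herbicide application the pots are kept in a greenhouse with the flood maintained. Plants are rated 0-9 by visual comparison with controls.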

[16] = tested on: ECHCG (Echinochloa crus-galli); assay: Postemergence herbicidal evaluation; type: in vivo, (L.) Beau; settings: postemergence
Procedure, shortened: as §2

[17] = tested on: CHEAL (Chenopodium album); assay: Postemergence herbicidal evaluation; type: in vivo, L.; settings: postemergence
Procedure, shortened: as §2

[18] = tested on: CASOB (Cassia obtusifolia); assay: Postemergence herbicidal evaluation; type: in vivo, L.; settings: postemergence
Procedure, shortened: as §2

[19] = tested on: AMBEL (Ambrosia artemisifolia); assay: Postemergence herbicidal evaluation; type: in vivo, L.; settings: postemergence
Procedure, shortened: as §2

[20] = tested on: SAGPY (Sagittaria pygmaea); assay: Flooded paddy, preemergence weed control; type: in vivo, L.; settings: rated 3-4 weeks after treatment, 0-9 rating scale
Procedure, shortened: as §1

ZEAMX (Corn, Field) [21] = assay: Postemergence herbicidal evaluation; type: in vivo, Zea mays, L.; settings: postemergence
Procedure, shortened: as §2

SMILES: Cn1c(C(F)(F)F)cc(=O)n(-c2ccc3snc(-c4nc5ccccc5[nH]c4=O)c3c2)c1=O [Compound 90, 3-[3-(3,4-dihydro-3-oxo-2-quinoxalinyl)-1,2-benzisothiazol-5-yl]-1-methyl-6-(trifluoromethyl)uracil]
- Preemergence herbicidal rating ZEAMX (ZEAMX (Corn, Field) [1]; rate 0.0620 kg/ha): 0.0
- Preemergence herbicidal rating ZEAMX (ZEAMX (Corn, Field) [1]; rate 0.1250 kg/ha): 0.0
- Preemergence herbicidal rating ZEAMX (ZEAMX (Corn, Field) [1]; rate 0.2500 kg/ha): 0.0
- MOOVA herbicidal rating ([2]; rate 0.0320 kg/ha): 0.0
- MOOVA herbicidal rating ([2]; rate 0.1250 kg/ha): 0.0
- GALAP herbicidal rating (GALAP (Galium aparine) [3]; rate 0.0320 kg/ha): 4.0
- GALAP herbicidal rating (GALAP (Galium aparine) [3]; rate 0.0620 kg/ha): 4.0
- GALAP herbicidal rating (GALAP (Galium aparine) [3]; rate 0.1250 kg/ha): 5.0
- TRZAWR herbicidal rating ([4]; rate 0.0320 kg/ha): 2.8
- TRZAWR herbicidal rating ([4]; rate 0.0620 kg/ha): 2.8
- TRZAWR herbicidal rating ([4]; rate 0.1250 kg/ha): 2.0
- Preemergence herbicidal rating AMBEL ([5]; rate 0.0620 kg/ha): 0.0
- Preemergence herbicidal rating AMBEL ([5]; rate 0.1250 kg/ha): 1.5
- Preemergence herbicidal rating AMBEL ([5]; rate 0.2500 kg/ha): 3.5
- IPOHE herbicidal rating ([6]; rate 0.0320 kg/ha): 6.5
- IPOHE herbicidal rating ([6]; rate 0.0620 kg/ha): 8.0
- IPOHE herbicidal rating ([6]; rate 0.1250 kg/ha): 9.0
- Preemergence herbicidal rating IPOHE ([7]; rate 0.0620 kg/ha): 0.0
- Preemergence herbicidal rating IPOHE ([7]; rate 0.1250 kg/ha): 0.0
- Preemergence herbicidal rating IPOHE ([7]; rate 0.2500 kg/ha): 1.5
- Preemergence herbicidal rating ABUTH ([8]; rate 0.0620 kg/ha): 0.0
- Preemergence herbicidal rating ABUTH ([8]; rate 0.1250 kg/ha): 3.5
- Preemergence herbicidal rating ABUTH ([8]; rate 0.2500 kg/ha): 9.0
- Preemergence herbicidal rating GALAP (GALAP (Galium aparine) [9]; rate 0.0620 kg/ha): 0.0
- Preemergence herbicidal rating GALAP (GALAP (Galium aparine) [9]; rate 0.1250 kg/ha): 0.0
- Preemergence herbicidal rating GALAP (GALAP (Galium aparine) [9]; rate 0.2500 kg/ha): 3.0
- Preemergence herbicidal rating ECHCG ([10]; rate 0.0620 kg/ha): 0.0
- Preemergence herbicidal rating ECHCG ([10]; rate 0.1250 kg/ha): 0.0
- Preemergence herbicidal rating ECHCG ([10]; rate 0.2500 kg/ha): 1.0
- ORYSAT herbicidal rating (ORYSAT (Rice, Tebonnet) [11]; rate 0.0320 kg/ha): 2.0
- ORYSAT herbicidal rating (ORYSAT (Rice, Tebonnet) [11]; rate 0.0620 kg/ha): 2.5
- ORYSAT herbicidal rating (ORYSAT (Rice, Tebonnet) [11]; rate 0.1250 kg/ha): 2.0
- Preemergence herbicidal rating GLXMA (GLXMA (Soybean); rate 0.0620 kg/ha): 0.0
- Preemergence herbicidal rating GLXMA (GLXMA (Soybean); rate 0.1250 kg/ha): 0.0
- Preemergence herbicidal rating GLXMA (GLXMA (Soybean); rate 0.2500 kg/ha): 0.0
- CYPIR herbicidal rating (CYPIR (Cyperus iria); rate 0.0320 kg/ha): 0.0
- CYPIR herbicidal rating (CYPIR (Cyperus iria); rate 0.1250 kg/ha): 0.0
- GLXMAW herbicidal rating ([12]; rate 0.0320 kg/ha): 6.0
- GLXMAW herbicidal rating ([12]; rate 0.0620 kg/ha): 6.3
- GLXMAW herbicidal rating ([12]; rate 0.1250 kg/ha): 6.5
- ABUTH herbicidal rating ([13]; rate 0.0320 kg/ha): 7.5
- ABUTH herbicidal rating ([13]; rate 0.0620 kg/ha): 7.5
- ABUTH herbicidal rating ([13]; rate 0.1250 kg/ha): 9.0
- ECHORC herbicidal rating ([14]; rate 0.0320 kg/ha): 0.0
- ECHORC herbicidal rating ([14]; rate 0.1250 kg/ha): 0.0
- ORYSAT herbicidal rating (transplanted rice tolerance) (ORYSAT (Rice, Tebonnet) [15]; rate 0.0320 kg/ha): 0.0
- ORYSAT herbicidal rating (transplanted rice tolerance) (ORYSAT (Rice, Tebonnet) [15]; rate 0.1250 kg/ha): 0.0
- ECHCG herbicidal rating ([16]; rate 0.0320 kg/ha): 2.0
- ECHCG herbicidal rating ([16]; rate 0.0620 kg/ha): 3.0
- ECHCG herbicidal rating ([16]; rate 0.1250 kg/ha): 4.0
- CHEAL herbicidal rating ([17]; rate 0.0320 kg/ha): 9.0
- CHEAL herbicidal rating ([17]; rate 0.0620 kg/ha): 9.0
- CHEAL herbicidal rating ([17]; rate 0.1250 kg/ha): 9.0
- CASOB herbicidal rating ([18]; rate 0.0320 kg/ha): 5.0
- CASOB herbicidal rating ([18]; rate 0.0620 kg/ha): 5.0
- CASOB herbicidal rating ([18]; rate 0.1250 kg/ha): 5.0
- AMBEL herbicidal rating ([19]; rate 0.0320 kg/ha): 6.5
- AMBEL herbicidal rating ([19]; rate 0.0620 kg/ha): 6.5
- AMBEL herbicidal rating ([19]; rate 0.1250 kg/ha): 9.0
- SAGPY herbicidal rating ([20]; rate 0.0320 kg/ha): 0.0
- SAGPY herbicidal rating ([20]; rate 0.1250 kg/ha): 0.0
- ZEAMX herbicidal rating (ZEAMX (Corn, Field) [21]; rate 0.0320 kg/ha): 3.3
- ZEAMX herbicidal rating (ZEAMX (Corn, Field) [21]; rate 0.0620 kg/ha): 3.3
- ZEAMX herbicidal rating (ZEAMX (Corn, Field) [21]; rate 0.1250 kg/ha): 2.5
